We go through five compounds from patent US9538759B2, “Chemical compositions and methodology to enhance plant growth and development” (priority 2013, dated 2017).

What all share (type): in vivo
For one assay, the system named is seed. The assay is described as follows: Replicated field plots comparing two lipoxygenase inhibitors as seed treatments, Safford, Arizona. The following applies: for Germination % / Seedling Ht. (cm) / Surviving Stand %: inhibitor coated at 2.0 g per kg dry seed; for Germination % / Seedling Ht. (cm) / Surviving Stand % / Emergence Coeff.: fungicide co-treatment, mean ± standard error; for Emergence Coeff.: smaller coefficient = faster seedling emergence, 2.0 g per kg dry seed. The text has this: The presence of lipoxygenase isoenzymes has always been considered a necessary enzymatic constituent of seed, with the enzyme especially predominant in oil seeds. The detrimental effects of lipoxygenase activity on the viability and storage attributes of seeds have been reported by a number of authors. (Leopold; Parrish; Pfeiffer, et al.: and Hajika, et al.)
Propyl gallate is the inhibitor and antioxidant of choice for inclusion in the improvement of U.S. Pat. No. 4,209,316 described in this application. […] Selected location: Safford, Arizona Experimental Research Station. Each data entry represents the mean of replicated random samples plus or minus the standard error. The smaller the emergence coefficient, the faster the speed of seedling emergence from the soil. All treatments except the first control received a fungicide co-treatment. Lipoxygenase inhibitors were coated on the seed at a rate of 2.0 grams per kilogram of dry seed.

The subject of another assay is seeds. The assay is described as follows: Classical antioxidants applied to seeds at much higher concentrations.
A further assay deals with Acala type cottons. As to the kind of experiment: Harvested seed cotton weight of container grown cottons, Tucson, Ariz. The source says: Table three illustrates the comparative advantage of the combination of buffered AMP and propyl gallate liquid formulation applied to two sets of Acala type cottons container grown in Tucson, Ariz. An extended harvest period was possible. Seed cotton was hand picked over several weeks. Bolls with fiber and seed were dried, individually weighed, and treatments were separated and bulked together. Osmocote complete fertilizer was applied twice—at two and four weeks—following the chemical formulation applications.

For `Oc1ccc(O)cc1` [Hydroquinone], in the assay with seed, the Germination % stood at 22.9 ± 3.1%, the “Seedling Ht. (cm)” value is reported as 16.6 ± 0.4 cm, the “Surviving Stand %” value is 60.6 ± 3.5% and the “Emergence Coeff.” value came to 0.50 ± 0.04. The “effectiveness as lipoxygenase inhibitor seed treatment” value in the assay on seed (seed treatment with inhibitor alone) is “effective”.

Turning to vitamin E, the “enhancement of seed germination and viability traits” value (“enhancement” for short) with seeds is on record as “no enhancement”.

In the case of `Cc1cc(C(C)(C)C)c(O)c(C(C)(C)C)c1` [butylated hydroxylated toluene], in the assay with seeds, the “enhancement” value is “no enhancement”.

Take `CCCOC(=O)c1cc(O)c(O)c(O)c1` [Propyl Gallate, propyl gallate]: the “Combined weight of harvested seed cotton per group (in grams)” value in the assay on Acala type cottons (group one) turned out to be 640 grams. Further, the “Combined weight of harvested seed cotton per group (in grams)” value in the assay with Acala type cottons (group two) came out at 423 grams. In the assay with seed, the Germination % is listed as 23.0 ± 2.3%, the “Seedling Ht. (cm)” value came to 17.3 ± 0.6 cm, the “Surviving Stand %” value is recorded as 57.8 ± 3.0% and the “Emergence Coeff.” value is reported as 0.52 ± 0.03.

Turning to `O=C1O[C@H]([C@@H](O)CO)C(O)=C1O` [ascorbic acid], the “enhancement” value in the assay with seeds is “no enhancement”.
